Assay results taken from patent US20160310581A1, “ADAM10 INHIBITION TO TREAT FRAGILE X SYNDROME” (VIB VZW, priority 2013, published 2016).
Entries after “also recorded” stand apart in the source; their conditions may differ.

What was measured:
mGluR-dependent LTD = assay: DHPG-induced mGluR-LTD, fEPSP recording in hippocampal slices; set-up: species or system mouse; conditions: for LTD of fEPSPs, % of baseline: 240 min; for effect on enhanced mGluR-LTD: Fmr1 KO mice, slices 24 h after peptide treatment; for effect on the ability of DHPG to elicit LTD: WT slices/mice, compared with untreated control
Description: Electrophysiology. Animals were euthanized by decapitation, and the right hippocampus was rapidly dissected out into ice-cold (4° C.) artificial cerebrospinal fluid (ACSF) and saturated with carbogen (95% O2/5% CO2). The ACSF consisted of (in mM): 124 NaCl, 4.9 KCl, 24.6 NaHCO3, 1.20 KH2PO4, 2.0 CaCl2, 2.0 MgCl2, and 10.0 glucose, pH 7.4. Transverse slices (400 μm thick) were prepared from the dorsal area of the hippocampus with a tissue chopper and were placed into a submerged-type chamber; samples were kept at 33° C. and continuously perfused with carbogen saturated ACSF at a flow-rate of 2.2 ml/min. After 90 min of incubation, one slice was arbitrarily selected, and a tungsten electrode was placed in the CA1 stratum radiatum. Field excitatory postsynaptic potentials (fEPSPs) were recorded by placing a glass electrode (filled with ACSF, 3-7 MΩ) in the stratum radiatum opposite the stimulating electrode. The time course of the field EPSP was measured as the descending slope function for all sets of experiments. After input/output curves had been established, the stimulation strength was adjusted to elicit a fEPSP-slope of 35% of the maximum and kept constant throughout the experiment. During the baseline recording, 3 single stimuli (0.1 ms pulse width; 10 s interval) were measured every 5 min. The mGluR mediated LTD was induced by a bath application of 30 μM S-DHPG [(S)-3-5-dihydroxy-phenyl glycine; Abcam Chemicals Ltd., Bristol UK] for 15 min (Tambuyzer et al., 2013). During the chemical induction, evoked responses were monitored at 1, 4, 7 and 10 min and then every 5 min until the end of the experiment. All studies were conducted with the experimenter blinded to the treatment regime.

[1] = system: group I metabotropic glutamate receptors (mGluR); conditions: DHPG 100 μM, 5 min
Description: Neuronal culture preparation and stimulation. Mouse primary cortical neurons (E15) were prepared as described (Ferrari et al., 2007). Neurons were treated with the mGluRI agonist DHPG (100 uM) for 5 min as described in Napoli et al., 2008.
Immunoprecipitation and RT-PCR. Mouse brains were lysed and the supernatant was used for the IP according to standardized protocol (Napoli et al., 2008). FMRP antibody or purified rabbit IgGs were incubated with the Protein A Sepharose beads and with brain extract or cells for 1 hr at 4° C. After incubation with the extracts RNA was extracted (Phenol/Chloroform) and precipitated in 2.5 v ethanol. First-strand synthesis was achieved using p(dN)6 and 100 U of Superscript III (Invitrogen) and PCR was performed with GoTaq (Promega), according to the manufacturer's instructions. We used specific oligonucleotides to amplify αCaMKII, App, Adam10, Adam9, Adam17, Cyp46, BC200, D2DR. When RTqPCR was used to quantify immunoprecipitated mRNA, the relative mRNA level in the immunoprecipitation samples was calculated as follows: 2^−[DCp(Ip)−DCp(IgG)]=2^−DDCp, where DCp equals Cp(IP or IgG)-Cp(Input).
Western Blot. Standard methodologies were used. 5-20 μg of total lysate or synaptoneurosomes were separated by SDS-PAGE electrophoresis and blotted on a PVDF membrane (Millipore). […] Further quantification was performed upon Coomassie staining of the membranes.

ADAM10 [2] = assay: sAPP release into medium of cultured cortical neurons (western blot); format: cell-based, mouse; conditions: Fmr1 KO cortical neurons
Description: Neuronal culture preparation and stimulation.
(§1) Western Blot. Standard methodologies were used. […] Membranes were incubated using specific antibodies. […] 5 (Molecular Dynamics).
Peptide treatment. […] P20 mice were given intraperitoneal injections of the two peptides (3 nmol/g) and fractionation performed after 24 hrs. Experiment was conducted on WT and KO littermate mice.

Fmr1 KO mice = assay: Behavioral tests: open field (hyperactivity) and T-maze (working memory); format: in vivo, mouse; conditions: P24-25
Description: Behavioral tests. All behavioral experiments were performed with P24-25 male mice and blind to the genotype and treatment. We used a minimum of 9 animals per genotype and treatment. Mice were habituated to their new environment for 3 days and tests were conducted during the light phase of their activity cycle. Health and weight of the mice were recorded routinely during the whole period of testing.
Open-field exploration was tested in 50 cm×50 cm×30 cm (w×l×h) square arena illuminated by indirect light. Animals were dark adapted for 30 min and placed in the arena for 10 min each. Movements of the mice in the arena were video-tracked for 10 min and the images were transmitted to a PC equipped with ANY-maze™ Video Tracking System software (Stoelting Co., IL, USA).
Spatial working memory was evaluated in a delayed nonmatching alternation test using an elevated open T-shaped maze made of dark grey plastic. The maze was composed of three 50 cm×7 cm×4 cm (l×w×h) arms elevated 25 cm above the ground. Behavior was registered with a PC-interfaced camera and analyzed with ANY-maze™ Video Tracking System software (Stoelting Co., IL, USA). The mouse was subjected to two trials. During the exploration trial, one of the horizontal T-maze arms (novel arm) was blocked with a 10 cm high door and the mouse was placed into the start arm to explore freely the start and familiar arms for 5 min. […]

[3] = system: dendritic spines of Fmr1 KO mice; assay: Morphological analysis of dendritic spines in vivo (diolistic DiI labelling); set-up: species or system mouse; conditions: 3 nmol/g i.p., 24 h, hippocampal sections, vs TAT-Ala Fmr1 KO mice
Description: Morphological analysis. Wild type and Fmr1 KO mice received an intraperitoneal injection with either TAT-Pro or TAT-Ala peptides (3 nmol/g; 14-d-old mice; 8 mice/group). After 24 h, the mice were deeply anaesthetised with an intraperitoneal injection 0.54 mg/g Avertin and then perfused with ice-cold 4% PFA in 0.1M phosphate buffer (PB; 61.2 mM Na2HPO4, 23.2 mM NaH2PO4.H20, pH 7.4). Brains were removed and sectioned in 200 μm thick transverse slices containing both cortex and hippocampus using a Vibratome (Vibratome). Slices were equilibrated in PBS at 4° C. before applying the Dil-coated particles using a diolistic gene-gun system (Bio-Rad laboratories, Italy). 15 min after application, slices were fixed with 4% PFA in 0.1M PB (2 hours) and kept in PB O/N before mounting. Images of Dil-labelled neurons in the hippocampus and cortex were acquired using Zeiss Confocal LSM510 Meta system with 63× objective and a sequential acquisition setting at 1024×1024 pixels resolution. For each image three to four 0.5 μm sections were acquired and z-projection was obtained. Morphological analysis of dendritic spines was performed using freely available ImageJ 1.42q software (Wayne Rasband National Institutes of Health, USA), and spine length, head width and neck width were measured.

ADAM10/SAP97 interaction = ADAM10/SAP97 interaction (Mus musculus, UniProt Q811D0); conditions: Marcello et al., 2007; cited from earlier work
ADAM10/SAP97 interaction, sequence (Q811D0 whole entry): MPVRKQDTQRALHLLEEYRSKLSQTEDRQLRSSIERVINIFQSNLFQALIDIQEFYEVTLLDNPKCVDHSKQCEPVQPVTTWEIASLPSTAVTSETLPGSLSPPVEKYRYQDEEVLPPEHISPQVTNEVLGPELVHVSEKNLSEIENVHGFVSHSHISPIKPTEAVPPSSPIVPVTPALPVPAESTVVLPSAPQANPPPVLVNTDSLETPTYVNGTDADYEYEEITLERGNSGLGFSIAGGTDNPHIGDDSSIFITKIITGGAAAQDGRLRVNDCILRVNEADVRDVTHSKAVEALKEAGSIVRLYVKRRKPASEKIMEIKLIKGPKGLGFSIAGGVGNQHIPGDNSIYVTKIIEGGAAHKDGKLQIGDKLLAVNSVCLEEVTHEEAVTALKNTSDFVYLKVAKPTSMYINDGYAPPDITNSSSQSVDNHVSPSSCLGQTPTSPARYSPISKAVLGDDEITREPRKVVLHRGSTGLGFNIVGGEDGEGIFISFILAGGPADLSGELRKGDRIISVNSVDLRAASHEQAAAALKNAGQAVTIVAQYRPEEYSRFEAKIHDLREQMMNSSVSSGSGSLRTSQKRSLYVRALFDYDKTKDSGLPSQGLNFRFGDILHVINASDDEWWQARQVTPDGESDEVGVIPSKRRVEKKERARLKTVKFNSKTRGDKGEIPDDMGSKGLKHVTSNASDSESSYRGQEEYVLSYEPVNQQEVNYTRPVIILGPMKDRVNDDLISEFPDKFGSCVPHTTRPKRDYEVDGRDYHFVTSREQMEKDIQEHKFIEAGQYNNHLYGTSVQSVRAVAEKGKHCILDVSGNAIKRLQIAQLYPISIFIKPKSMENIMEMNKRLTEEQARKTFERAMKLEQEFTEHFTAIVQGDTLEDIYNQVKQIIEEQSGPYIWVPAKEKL

[4] = Marcello et al., 2007; cited from earlier work
ADAM10 [5] = assay: sAPPα levels in brain after intraperitoneal peptide injection (brain fractionation, western blot); format: in vivo, mouse; conditions: Fmr1 KO mice; single i.p. injection 3 nmol/g, 24 h; vs TAT-Ala treated Fmr1 KO mice
Description: as §1
Brain fractionation. Half brain was homogenized in STE buffer (Sucrose 0.32 M, 5 mMTris HCl pH 7.4, 1 mM EDTA, PSMF 0.1 mM, 10 μl ml^−1 Protease inhibitor cocktail (PIC, Sigma). The homogenized tissue was centrifuged at 800 g for 10 min to pull down nuclei. The resulting supernatant was then centrifuged at 55000 rpm 1 h. The supernatant (S1) was collected while the pellet was dissolved in 1% Triton STE Buffer and centrifuged at 55.000 rpm (TLX) for 1 hr. The supernatant is collected (S2) and the final pellet homogenized in SDS Laemmli buffer 1× (Triton-insoluble fraction, P1).
Peptide treatment. Specific (TAT-PRO) or control (TAT-ALA) peptides (10 μM) were added to the media of DIV14 WT and KO cultured neuron and the release of sAPP was monitored by WB after 24 h. P20 mice were given intraperitoneal injections of the two peptides (3 nmol/g) and fractionation performed after 24 hrs. Experiment was conducted on WT and KO littermate mice.

N[C@H](C(=O)O)c1cc(O)cc(O)c1 [DHPG, (S)-3-5-dihydroxy-phenyl glycine]
LTD of fEPSPs, % of baseline (mGluR-dependent LTD; Fmr1 KO mice slices, DHPG 30 μM, 15 min): 28±3%
LTD of fEPSPs, % of baseline (mGluR-dependent LTD; WT slices, DHPG bath application 30 μM, 15 min): 53±9%
expression of APP ([1]; primary cortical neurons DIV14): induced an increase
amount of App mRNA associated with FMRP ([1]; primary cortical neurons): reduced by threefold

TIMP-1: tissue inhibitor of metalloproteinase-1, an inhibitor of metalloproteinases
sAPP release in the medium (ADAM10 [2]; TIMP-1 15 nM for 4 h): significantly reduces sAPP release

TAT-Pro: Cell-permeable anti-ADAM10 peptide YGRKKRRQRRRPKLPPPKPLPGTLKRRRPPQP (SEQ ID NO:1): 11 aa Tat transporter sequence linked to 21 aa ADAM10 proline rich domains (Tat-Pro ADAM10 709-729 peptide)
behavioural deficits (open field hyperactivity, T-maze working memory) (Fmr1 KO mice): partially ameliorates the behavioural deficits
spines density [3]: decreases spines density
spines length [3]: significantly increases
spines width [3]: significantly increases
sAPP release in the medium (ADAM10 [2]; peptide 10 μM, 1 h, compared to TAT-Ala exposed neurons): significantly decreases sAPP release; also recorded: reduces sAPP release
ADAM10/SAP97 interaction (ADAM10/SAP97 interaction): interferes with ADAM10/SAP97 interaction
effect on enhanced mGluR-LTD (mGluR-dependent LTD; DHPG 30 μM, 15 min, listed as Tat-Pro): prevents mGluR-LTD
effect on enhanced mGluR-LTD (mGluR-dependent LTD; DHPG 30 μM, 15 min, listed as Tat-Pro ADAM10^709-729): sufficient to prevent the enhanced LTD
fEPSP after DHPG-induced LTD (% of baseline) (mGluR-dependent LTD; WT slices, 24 h after peptide treatment, DHPG 30 μM, 15 min): 65±8%
effect on the ability of DHPG to elicit LTD (mGluR-dependent LTD; listed as Tat-Pro): does not impact LTD
effect on the ability of DHPG to elicit LTD (mGluR-dependent LTD; listed as Tat-Pro ADAM10^709-729): no detectable effect
blood-brain barrier crossing [4]: crosses the blood-brain barrier
sAPPα levels in brain (ADAM10 [5]): significant reduction of sAPPα levels
